Entries after “also recorded” stand apart in the source; their conditions may differ.
What was measured:
[1] = system: guinea pig ileal longitudinal muscle (GPI); assay: Agonism on electrically stimulated guinea pig ileal longitudinal muscle (GPI); format: cell-based
Method: (§1) Ilea from guinea pigs were taken approximately 10 cm from the ileocaecal junction, and a strip of longitudinal muscle with the myenteric plexus attached was prepared by method of Rang et al., Brit. J. Phamacol., 22, 356 (1964), the disclosure of which is incorporated by reference herein. A 1 cm portion of this strip was then mounted between two platinum electrodes placed in a 10 ml organ bath and connected to an isometric transducer; contractions were recorded on a polygraph. Contractions of the ileal strip were initiated by supramaximal rectangular pulses in all preparations (80 V of 0.5 ms duration at a frequency of 0.1 Hz). Krebs bicarbonate solution containing 1.25 uM chlorpheniramine maleate was the bathing solution and was continuously bubbled with 95% O2 and 5% CO2. The organ bath was maintained at 36°-37° C. The longitudinal muscle strip was allowed to equilibrate with continuous stimulation for a minimun of 90 min. Cumulative concentration-response curves were determined after drugs were added to the bath in 10- to 50-uL amounts and washed out with two 10 ml portions of buffer after noting their maximum effects.
(§2) Compounds IIIa-IIIh and TENA were tested on the electrically-stimulated guniea pig ileal longitudinal muscle (GPI) and, where appropriate, the mouse vas deferens preparation (MVD).
(§3) ^a For ligands that are partial or pure antagonists, the highest
(§4) concentration and maximal response is given. Potencies of pure agonists
(IIIeh) are relative to morphine = 1.

mu receptor = target: T1, mu receptor (Cavia porcellus, UniProt A0ACM8Q262); assay: Antagonism of morphine sulfate (mu agonist) on the GPI, IC50 ratio; format: cell-based, guinea pig
T1 construct: antagonism of morphine
Method: as §1

kappa opioid receptor [2] = target: T2, kappa opioid receptor (Cavia porcellus, UniProt P41144); assay: Antagonism of ethylketazocine (EK, kappa agonist) on the GPI, IC50 ratio; format: cell-based, guinea pig
T2 construct: a strip of longitudinal muscle with the myenteric plexus attached was prepared; from tissue; host or cells: guinea pig ileal longitudinal muscle strip with myenteric plexus
Method: as §1

mouse vas deferens (MVD) = assay: Agonism on the mouse vas deferens preparation (MVD); format: cell-based; details: for Emax at 1 µM: Mus musculus, read-out: MVD Agonism (maximal response at highest concentration)
Method: (§5) This assay was performed according to the description by Henderson et al., Brit. J. Pharmacol., 46, 764 (1972), the disclosure of which is incorporated by reference herein. Both vasa deferentia were dissected out of mice and mounted singly through two platinum ring electrodes in a 10 ml organ bath. The bath contained Krebs bicarbonate solution that was continuously bubbled with 95% O2 and 5% CO2. The organ bath was maintained at 37° C. The tissue was attached to an isometric transducer and stimulated transmurally with rectangular pulses ([…], 1 ms duration, supramaximal voltage). Drugs were added cumulatively to the bath in 10 to 50 ul amounts and washed out after noting their maximum effect.
as §2, §3, §4

delta opioid receptor = target: T3, delta opioid receptor (Mus musculus, UniProt P32300); assay: Antagonism of DADLE (selective delta agonist) on the MVD, IC50 ratio; format: cell-based; details: IC50 of agonist in presence of antagonist / control IC50
T3 construct: Both vasa deferentia were dissected out of mice; from tissue; host or cells: mouse vas deferens
Method: as §5

kappa receptor = details: cited from earlier work
mu receptors = details: cited from earlier work
kappa opioid receptor [3] = target: T2, kappa opioid receptor; assay: Antagonism of U50488H (selective kappa agonist) on the GPI, IC50 ratio; format: cell-based, guinea pig; details: for GPI IC50 Ratio, U50488H: IC50 of agonist in presence of antagonist / control IC50
Method: as §1

[4] = Mouse writhing procedure, antagonism of agonist; format: in vivo; details: morphine 50 nmol s.c.; antagonist ICV
Method: (§6) Mice were treated with 50 nmol of the agonist (morphine, EK, or U50488H) subcutaneously and the antagonist was administered intracerebroventricularly (ICV).

kappa receptors = target: T4, kappa receptors (Mus musculus, UniProt P33534); assay: Mouse writhing procedure, antagonism of agonist; format: in vivo; details: antagonist ICV
T4 construct: tested in vivo using the mouse writhing procedure; from tissue
Method: as §6

kappa-opioid receptors = assay: Kappa-opioid antagonist selectivity (comparison of IC50 ratios, GPI and MVD); format: cell-based, guinea pig
Method: as §1
This assay was performed according to the description by Henderson et al., Brit. J. Pharmacol., 46, 764 (1972), the disclosure of which is incorporated by reference herein. […]

[5] = Cavia porcellus, read-out: GPI Agonism (maximal response at highest concentration)
[6] = antagonist 20 nM, IC50 of agonist in presence of antagonist / control IC50
[7] = antagonist 2 nM, IC50 of agonist in presence of antagonist / control IC50

T1 sequence (A0ACM8Q262 1-400): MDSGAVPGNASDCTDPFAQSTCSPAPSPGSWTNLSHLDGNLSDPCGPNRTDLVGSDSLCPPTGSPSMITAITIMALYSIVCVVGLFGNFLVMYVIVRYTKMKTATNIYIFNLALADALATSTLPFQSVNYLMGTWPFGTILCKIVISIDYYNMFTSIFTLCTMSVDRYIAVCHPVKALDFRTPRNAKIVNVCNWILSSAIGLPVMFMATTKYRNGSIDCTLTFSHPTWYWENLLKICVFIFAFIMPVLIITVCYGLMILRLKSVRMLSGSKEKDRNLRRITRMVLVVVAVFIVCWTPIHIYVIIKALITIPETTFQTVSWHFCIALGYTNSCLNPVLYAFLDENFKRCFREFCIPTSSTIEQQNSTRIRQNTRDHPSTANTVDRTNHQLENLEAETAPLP
T3 sequence (P32300 whole entry): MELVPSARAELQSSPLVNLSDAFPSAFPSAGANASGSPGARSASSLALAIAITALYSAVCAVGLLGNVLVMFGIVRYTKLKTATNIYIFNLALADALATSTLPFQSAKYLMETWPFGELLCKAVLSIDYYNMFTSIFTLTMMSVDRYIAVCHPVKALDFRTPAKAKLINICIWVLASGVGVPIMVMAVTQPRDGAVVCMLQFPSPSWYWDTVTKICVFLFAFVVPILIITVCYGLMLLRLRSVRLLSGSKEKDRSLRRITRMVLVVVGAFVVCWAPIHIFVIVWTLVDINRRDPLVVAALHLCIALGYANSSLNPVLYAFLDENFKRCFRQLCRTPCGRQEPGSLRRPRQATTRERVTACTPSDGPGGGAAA
T2 sequence (P41144 whole entry): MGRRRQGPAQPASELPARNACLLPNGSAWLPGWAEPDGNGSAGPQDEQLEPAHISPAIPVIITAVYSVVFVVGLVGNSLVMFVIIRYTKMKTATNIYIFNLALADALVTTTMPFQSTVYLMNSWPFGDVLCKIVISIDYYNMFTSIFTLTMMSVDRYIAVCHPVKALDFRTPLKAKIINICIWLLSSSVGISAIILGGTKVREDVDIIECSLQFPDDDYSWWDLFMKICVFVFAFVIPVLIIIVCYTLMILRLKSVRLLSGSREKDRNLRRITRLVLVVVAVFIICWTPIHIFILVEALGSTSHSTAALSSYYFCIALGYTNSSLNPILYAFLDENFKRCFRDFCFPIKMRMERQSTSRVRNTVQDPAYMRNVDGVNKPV
T4 sequence (P33534 whole entry): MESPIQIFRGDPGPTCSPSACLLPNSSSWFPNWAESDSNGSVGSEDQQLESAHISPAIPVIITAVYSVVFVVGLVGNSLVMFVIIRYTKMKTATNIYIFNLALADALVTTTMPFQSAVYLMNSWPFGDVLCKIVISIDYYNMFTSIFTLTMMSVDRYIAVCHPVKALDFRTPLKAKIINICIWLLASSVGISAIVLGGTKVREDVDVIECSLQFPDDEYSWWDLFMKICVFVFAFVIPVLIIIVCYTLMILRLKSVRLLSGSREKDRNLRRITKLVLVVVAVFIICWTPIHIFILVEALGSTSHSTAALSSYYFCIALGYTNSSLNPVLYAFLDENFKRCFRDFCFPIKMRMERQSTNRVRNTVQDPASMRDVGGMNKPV

COc1ccc2c3c1O[C@H]1c4[nH]c5c(c4C[C@@]4(O)[C@@H](C2)N(CC2CC2)CC[C@]314)C[C@@]1(O)[C@H]2Cc3ccc(OC)c4c3[C@@]1(CCN2CC1CC1)[C@H]5O4 [IIIe]
Emax at 1 µM [1, 5]: 0%
GPI IC50 Ratio, Morphine Sulfate (mu receptor; [6]): 0.8 (2)
GPI IC50 Ratio, Ethylketazocine (kappa opioid receptor [2]; [6]): 4 (2)
Emax at 1 µM (mouse vas deferens (MVD)): 39%
MVD IC50 Ratio, DADLE (delta opioid receptor; antagonist 20 nM): 0.6 ± 0.1

Oc1ccc2c3c1O[C@H]1[C@H](NCCOCCOCCN[C@@H]4CC[C@@]5(O)[C@H]6Cc7ccc(O)c8c7[C@@]5(CCN6CC5CC5)[C@H]4O8)CC[C@@]4(O)[C@@H](C2)N(CC2CC2)CC[C@]314 [TENA, reference compound]
Emax at 0.01 µM ([1]; Cavia porcellus, @ 10 nM, read-out: GPI Agonism (maximal response at highest concentration)): 10%
GPI IC50 Ratio, Morphine Sulfate (mu receptor; [6]): 4.20 ± 1.20
GPI IC50 Ratio, Ethylketazocine (kappa opioid receptor [2]; [6]): 19.6 ± 2.40
MVD IC50 Ratio, DADLE (delta opioid receptor; antagonist 20 nM): 1.2
times more effective in antagonizing U50488H relative to morphine (kappa receptor; U50488H vs morphine): about 27 times
times more effective against ethylketazocine relative to morphine (kappa receptor; ethylketazocine vs morphine): about five

O=C1CC[C@@]2(O)[C@H]3Cc4ccc(O)c5c4[C@@]2(CCN3CC2CC2)[C@H]1O5 [naltrexone]
potency at mu receptors compared with kappa (mu receptors): much greater potency at mu receptors

CN1CC[C@]23c4c5ccc(O)c4O[C@H]2c2[nH]c4c(c2C[C@H]3[C@H]1C5)C[C@H]1[C@H]2Cc3ccc(O)c5c3[C@@]1(CCN2C)[C@H]4O5 [IIIf]
GPI Agonism, potency of pure agonists relative to morphine = 1 [1]: 3.1 ± 0.4
GPI IC50 Ratio, Morphine Sulfate (mu receptor; compound 10 nM): 0.3 ± 0.1
GPI IC50 Ratio, Ethylketazocine (kappa opioid receptor [2]; compound 10 nM): 0.5 ± 0.04

COc1ccc2c3c1O[C@H]1c4[nH]c5c(c4C[C@H]4[C@@H](C2)N(C)CC[C@]314)C[C@H]1[C@H]2Cc3ccc(OC)c4c3[C@@]1(CCN2C)[C@H]5O4 [IIIg]
GPI Agonism, potency of pure agonists relative to morphine = 1 [1]: 0.2 ± 0.04
GPI IC50 Ratio, Morphine Sulfate (mu receptor; compound 100 nM): 0.5 ± 0.07
GPI IC50 Ratio, Ethylketazocine (kappa opioid receptor [2]; compound 100 nM): 0.4 ± 0.07

Oc1ccc2c3c1O[C@H]1c4[nH]c5c(c4C[C@@]4(O)[C@@H](C2)N(CC2CC2)CC[C@]314)C[C@@]1(O)[C@H]2Cc3ccc(O)c4c3[C@@]1(CCN2CC1CC1)[C@H]5O4 [IIIa]
Emax at 0.2 µM ([1]; Cavia porcellus, @ 200 nM, read-out: GPI Agonism (maximal response at highest concentration)): 14%
GPI IC50 Ratio, Morphine Sulfate (mu receptor; [7]): 0.92 ± 0.16
GPI IC50 Ratio, Morphine Sulfate (mu receptor; [6]): 4.7 ± 0.8
GPI IC50 Ratio, Ethylketazocine (kappa opioid receptor [2]; [7]): 8.8 ± 0.13
GPI IC50 Ratio, Ethylketazocine (kappa opioid receptor [2]; [6]): 49.7 ± 15.6
antagonism of U50488H in GPI, IC50 ratio values compared with EK (kappa opioid receptor [3]): higher IC50 ratio values were observed
GPI IC50 Ratio, U50488H (kappa opioid receptor [3]; antagonist 2 nM): 11.0 ± 1.1
GPI IC50 Ratio, U50488H (kappa opioid receptor [3]; antagonist 20 nM): 178 ± 18
Emax at 1 µM (mouse vas deferens (MVD)): 16%
MVD IC50 Ratio, DADLE (delta opioid receptor; antagonist 20 nM): 2.0 ± 0.1

CCn1c2c(c3c1[C@@H]1Oc4c(O)ccc5c4[C@@]14CCN(CC1CC1)[C@H](C5)[C@]4(O)C3)C[C@@]1(O)[C@H]3Cc4ccc(O)c5c4[C@@]1(CCN3CC1CC1)[C@H]2O5 [IIIc]
Emax at 1 µM [1, 5]: 0%
GPI IC50 Ratio, Morphine Sulfate (mu receptor; [6]): 2.2 ± 0.7
GPI IC50 Ratio, Ethylketazocine (kappa opioid receptor [2]; [6]): 147 ± 20
Emax at 1 µM (mouse vas deferens (MVD)): 41%
MVD IC50 Ratio, DADLE (delta opioid receptor; antagonist 2 nM): 1.8 ± 0.3
MVD IC50 Ratio, DADLE (delta opioid receptor; antagonist 20 nM): 4.2 ± 1.1

CC(=O)Oc1ccc2c3c1O[C@H]1c4[nH]c5c(c4C[C@@]4(O)[C@@H](C2)N(CC2CC2)CC[C@]314)C[C@@]1(O)[C@H]2Cc3ccc(OC(C)=O)c4c3[C@@]1(CCN2CC1CC1)[C@H]5O4 [IIId]
Emax at 1 µM [1, 5]: 32%
GPI IC50 Ratio, Morphine Sulfate (mu receptor; [6]): 8.0 (2)
GPI IC50 Ratio, Ethylketazocine (kappa opioid receptor [2]; [6]): 697 (2)
Emax at 1 µM (mouse vas deferens (MVD)): 32%
MVD IC50 Ratio, DADLE (delta opioid receptor; antagonist 20 nM): 3.5 ± 1.3

CN1CC[C@]23c4c5ccc(O)c4O[C@H]2c2[nH]c4c(c2C[C@@]3(O)[C@H]1C5)C[C@@]1(O)[C@H]2Cc3ccc(O)c5c3[C@@]1(CCN2C)[C@H]4O5 [IIIh]
GPI Agonism, potency of pure agonists relative to morphine = 1 [1]: 0.23 ± 0.05
GPI IC50 Ratio, Morphine Sulfate (mu receptor; compound 50 nM): 0.9 ± 0.2
GPI IC50 Ratio, Ethylketazocine (kappa opioid receptor [2]; compound 50 nM): 0.4 ± 0.05

Cn1c2c(c3c1[C@@H]1Oc4c(O)ccc5c4[C@@]14CCN(CC1CC1)[C@H](C5)[C@]4(O)C3)C[C@@]1(O)[C@H]3Cc4ccc(O)c5c4[C@@]1(CCN3CC1CC1)[C@H]2O5 [IIIb]
agonist activity in GPI [1]: no agonist effect
Emax at 1 µM [1, 5]: 0%
antagonism of morphine in GPI (mu receptor; 20 nM): no significant antagonism of morphine was observed at 20 nM
GPI IC50 Ratio, Morphine Sulfate (mu receptor; [6]): 1.2 ± 0.3
GPI IC50 Ratio, Ethylketazocine (kappa opioid receptor [2]; [6]): 165 ± 30
agonist activity in MVD (mouse vas deferens (MVD)): no agonist effect
Emax at 1 µM (mouse vas deferens (MVD)): 42%
MVD IC50 Ratio, DADLE (delta opioid receptor; antagonist 20 nM): 4.5 ± 0.7
ED50 ratio [(agonist+IIIb)/agonist control], morphine [4]: 0.85
ED50 ratio [(agonist+IIIb)/agonist control], EK (kappa receptors; EK 50 nmol s.c.): 3.85
ED50 ratio [(agonist+IIIb)/agonist control], U50488H (kappa receptors; U50488H 50 nmol s.c.): 15.71
kappa-opioid antagonist selectivity (kappa-opioid receptors): possesses the greatest kappa selectivity; also recorded: "pure" kappa-opioid receptor antagonist

— patent US4649200A, “Substituted pyrroles with opioid receptor activity” (Regents of the University of Minnesota, priority 1986, dated 1987)
